Activity calls are given as the source filed them. The calls are words filed in the database; no cut-off is given here.
Experiments:
[1] = target: T1, Transient receptor potential cation channel subfamily A member 1 (Homo sapiens, UniProt O75762); assay: Agonist activity at human TRPA1 expressed in HEK293 cells assessed as induction of calcium influx at 30 uM after 6 mins by Fluo-4 dye-based assay; type: cell-based
[2] = target: T1, Transient receptor potential cation channel subfamily A member 1; assay: Agonist activity at human TRPA1 expressed in HEK293 cells assessed as induction of calcium influx at 30 uM after 6 mins by Fluo-4 dye-based assay relative to AITC; type: cell-based; conditions: hek293, 0.1 h
[3] = target: T1, Transient receptor potential cation channel subfamily A member 1; assay: Inhibition of human TRPA1 expressed in HEK293 cells assessed as decrease in AITC-induced calcium influx preincubated for 6 mins followed by AITC addition measured for 1 min by Fluo-4 dye-based assay; type: cell-based
[4] = target: T1, Transient receptor potential cation channel subfamily A member 1; assay: Inhibition of human TRPA1 expressed in HEK293 cells assessed as decrease in AITC-induced calcium influx at 30 uM preincubated for 6 mins followed by AITC addition measured for 1 min by Fluo-4 dye-based assay relative to resveratrol; type: cell-based
[5] = target: T1, Transient receptor potential cation channel subfamily A member 1; assay: Inhibition of human TRPA1 expressed in HEK293 cells assessed as decrease in AITC-induced calcium influx at 10 uM preincubated for 6 mins followed by AITC addition measured for 1 min by Fluo-4 dye-based assay relative to control; type: cell-based
[6] = target: T1, Transient receptor potential cation channel subfamily A member 1; assay: Inhibition of human TRPA1 expressed in HEK293 cells assessed as decrease in AITC-induced calcium influx at 30 uM preincubated for 6 mins followed by AITC addition measured for 1 min by Fluo-4 dye-based assay relative to control; type: cell-based
[7] = target: T2, Transient receptor potential cation channel subfamily A member 1 (Rattus norvegicus, UniProt Q6RI86); assay: Activation of TRPA1 in Sprague-Dawley rat DRG neuron assessed as induction of current response at -60 mV holding potential at 300 uM incubated for 30 secs by whole-cell patch-clamp assay; conditions: 0.5 min
T2 sequence (Q6RI86 whole entry): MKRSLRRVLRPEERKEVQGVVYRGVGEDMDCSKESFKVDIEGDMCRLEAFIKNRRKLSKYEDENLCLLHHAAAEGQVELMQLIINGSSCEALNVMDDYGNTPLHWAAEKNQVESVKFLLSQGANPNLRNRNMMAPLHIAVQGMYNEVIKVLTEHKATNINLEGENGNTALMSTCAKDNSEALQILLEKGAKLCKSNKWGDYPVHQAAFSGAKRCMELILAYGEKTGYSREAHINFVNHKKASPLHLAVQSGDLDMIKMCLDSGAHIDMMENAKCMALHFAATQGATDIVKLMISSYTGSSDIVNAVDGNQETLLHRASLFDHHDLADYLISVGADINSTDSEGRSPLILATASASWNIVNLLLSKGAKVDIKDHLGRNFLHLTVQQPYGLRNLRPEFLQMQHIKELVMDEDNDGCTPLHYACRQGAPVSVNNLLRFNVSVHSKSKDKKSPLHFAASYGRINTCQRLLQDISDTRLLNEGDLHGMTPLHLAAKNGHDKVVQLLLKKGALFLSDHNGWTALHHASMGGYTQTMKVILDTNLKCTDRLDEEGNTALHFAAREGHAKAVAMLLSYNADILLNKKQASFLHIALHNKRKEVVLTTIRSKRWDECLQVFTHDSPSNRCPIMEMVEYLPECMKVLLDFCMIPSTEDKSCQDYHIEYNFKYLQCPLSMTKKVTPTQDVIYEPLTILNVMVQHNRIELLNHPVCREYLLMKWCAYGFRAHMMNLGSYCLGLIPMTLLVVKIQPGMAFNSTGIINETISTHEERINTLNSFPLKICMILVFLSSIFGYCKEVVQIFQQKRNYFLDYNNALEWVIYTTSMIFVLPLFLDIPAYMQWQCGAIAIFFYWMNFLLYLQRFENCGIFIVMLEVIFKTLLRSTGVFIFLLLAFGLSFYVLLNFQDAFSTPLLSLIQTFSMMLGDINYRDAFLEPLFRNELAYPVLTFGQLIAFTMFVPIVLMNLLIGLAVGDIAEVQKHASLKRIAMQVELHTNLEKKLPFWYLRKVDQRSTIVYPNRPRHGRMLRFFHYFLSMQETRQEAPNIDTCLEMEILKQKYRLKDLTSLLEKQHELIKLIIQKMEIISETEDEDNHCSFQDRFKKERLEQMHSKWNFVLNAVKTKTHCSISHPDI

[8] = target: T1, Transient receptor potential cation channel subfamily A member 1; assay: Inhibition of TRPA1 (unknown origin)
[9] = target: T1, Transient receptor potential cation channel subfamily A member 1; assay: Inhibition of human TRPA1 expressed in HEK293 cells assessed as decrease in AITC-induced calcium influx at 3 uM preincubated for 6 mins followed by AITC addition measured for 1 min by Fluo-4 dye-based assay relative to control; type: cell-based
[10] = target: T1, Transient receptor potential cation channel subfamily A member 1; assay: Inhibition of human TRPA1 expressed in HEK293 cells assessed as decrease in AITC-induced current response by whole cell patch clamp method; type: cell-based
Rattus norvegicus [11] = assay: Antinociceptive activity in Sprague-Dawley rat assessed as decrease in paw-licking time at 2 mM administered intraplantarly for 5 mins followed by AITC addition measured for 5 mins; type: functional
[12] = target: T1, Transient receptor potential cation channel subfamily A member 1; assay: Activation of human TRPA1 expressed in HEK293 cells assessed as induction of inward current response at -60 mV holding potential at 5 uM incubated for 1 min by whole-cell patch-clamp assay; type: cell-based; conditions: hek293, 1 min
[13] = target: T2, Transient receptor potential cation channel subfamily A member 1; assay: Activation of TRPA1 in Sprague-Dawley rat DRG neuron assessed as induction of current response at -60 mV holding potential at 30 uM incubated for 30 secs by whole-cell patch-clamp assay; conditions: 0.5 min
[14] = target: T1, Transient receptor potential cation channel subfamily A member 1; assay: Agonist activity at human TRPA1 expressed in HEK293 cells assessed as induction of inward current response by whole-cell patch-clamp assay; type: cell-based
[15] = target: T1, Transient receptor potential cation channel subfamily A member 1; assay: Desensitization of human TRPA1 expressed in HEK293 cells assessed as decrease in AITC-induced inward current response at -60 mV holding potential preincubated for 1 min followed by AITC induction for 1 min by whole-cell patch-clamp assay; type: cell-based
HEK293 = assay: Induction of current response in HEK293 cells at 10 uM by whole-cell patch-clamp assay; type: cell-based; conditions: human, hek293, 10 µM
[16] = target: T1, Transient receptor potential cation channel subfamily A member 1; assay: Agonist activity at human TRPA1 expressed in HEK293 cells assessed as induction of inward current response at 10 uM in presence of TRPA1 antagonist HC-030031 by whole-cell patch-clamp assay; type: cell-based; conditions: hek293, 10 µM
Rattus norvegicus [17] = assay: Induction of nocifensive behavior in Sprague-Dawley rat at 2 mM administered intraplantarly for 5 mins; conditions: in vivo, other, 2000 µM
[18] = target: T2, Transient receptor potential cation channel subfamily A member 1; assay: Activation of TRPA1 in Sprague-Dawley rat DRG neuron assessed as induction of current response at -60 mV holding potential at 1 uM incubated for 30 secs by whole-cell patch-clamp assay; conditions: 0.5 min

T1 sequence (O75762 whole entry): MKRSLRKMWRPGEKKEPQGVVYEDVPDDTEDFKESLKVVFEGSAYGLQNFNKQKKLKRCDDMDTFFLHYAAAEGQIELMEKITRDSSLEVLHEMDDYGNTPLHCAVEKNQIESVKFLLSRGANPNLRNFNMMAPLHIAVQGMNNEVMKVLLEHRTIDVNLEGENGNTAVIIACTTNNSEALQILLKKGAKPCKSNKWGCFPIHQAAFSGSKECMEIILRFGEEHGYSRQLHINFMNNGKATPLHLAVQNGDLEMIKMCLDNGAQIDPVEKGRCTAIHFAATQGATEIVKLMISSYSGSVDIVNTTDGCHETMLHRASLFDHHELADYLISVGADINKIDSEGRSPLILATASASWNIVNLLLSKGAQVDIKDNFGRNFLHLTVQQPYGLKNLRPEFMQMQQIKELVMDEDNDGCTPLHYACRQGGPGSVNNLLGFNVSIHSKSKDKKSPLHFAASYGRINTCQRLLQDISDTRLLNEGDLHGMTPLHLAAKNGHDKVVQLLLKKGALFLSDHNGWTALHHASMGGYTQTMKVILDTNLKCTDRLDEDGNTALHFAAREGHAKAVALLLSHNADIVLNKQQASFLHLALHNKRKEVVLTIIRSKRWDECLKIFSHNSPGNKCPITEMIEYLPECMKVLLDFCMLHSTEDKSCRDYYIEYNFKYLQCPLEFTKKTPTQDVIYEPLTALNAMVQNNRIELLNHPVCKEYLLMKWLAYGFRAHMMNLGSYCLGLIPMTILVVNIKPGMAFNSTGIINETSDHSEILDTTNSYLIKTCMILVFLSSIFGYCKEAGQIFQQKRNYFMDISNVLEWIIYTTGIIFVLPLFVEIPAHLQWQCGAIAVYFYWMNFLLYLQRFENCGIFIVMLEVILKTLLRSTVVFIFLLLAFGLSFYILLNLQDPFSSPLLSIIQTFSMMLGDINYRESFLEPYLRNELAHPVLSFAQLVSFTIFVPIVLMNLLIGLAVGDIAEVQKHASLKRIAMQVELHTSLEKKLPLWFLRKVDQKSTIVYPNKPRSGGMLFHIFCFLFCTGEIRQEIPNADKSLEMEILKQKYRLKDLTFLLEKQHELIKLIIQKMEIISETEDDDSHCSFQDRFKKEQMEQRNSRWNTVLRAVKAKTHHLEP

SMILES | fold change (FC) [2] | fold change (FC) [4] | further results
Oc1ccc(CCc2cc(O)cc(O)c2)cc1 [DIHYDRORESVERATROL] | 0.4 | 1.2 | EC50 [1]: > 30 µM; IC50 [3]: > 30 µM; inhibition [5]: 1.2%
Oc1cc(O)cc(/C=C/c2ccc(OCC3CCCCC3)cc2)c1 | 0.4 | -0.1 | –
COc1ccc(/C=C/c2cc(O)cc(O)c2)cc1 [RESVERATROL 4'-METHYL ETHER] | 0.3 | 0.3 | –
Oc1cccc(/C=C/c2cc(O)cc(O)c2)c1 | 0.4 | 0.8 | EC50 [1]: > 30 µM; inhibition [6]: 1.4%; IC50 [3]: > 30 µM
Oc1cc(O)cc(/C=C/c2cccc3ccccc23)c1 | 0.3 | 1.1 | –
C=CCN=C=S [ALLYL ISOTHIOCYANATE] | – | – | Activity [7]: Active
Oc1cc(O)cc(/C=C/c2ccccc2O)c1 | 0.4 | 0.6 | –
COc1cc(O)cc(/C=C/c2ccccc2)c1 [PINOSYLVIN METHYL ETHER] | 0.7 | 0.6 | –
COc1ccc(/C=C/c2cc(O)cc(O)c2)cc1OC [RHAPONTIGENIN] | – | 0.4 | –
CCOc1ccc(/C=C/c2cc(O)cc(O)c2)cc1 | 0.3 | -0.2 | –
CCCOc1ccc(/C=C/c2cc(OCCC)cc(OCCC)c2)cc1 | 0.3 | -0.1 | –
Oc1ccccc1/C=C/c1ccccc1 | 0.6 | 1.1 | IC50 [8]: 1.7 to 2.2 µM; EC50 [1]: > 10 µM; inhibition [6]: -9.5%; IC50 [3]: > 30 µM; inhibition [9]: -1.9%; inhibition [5]: -5%
COCOc1ccc(/C=C/c2cc(OCOC)cc(OCOC)c2)cc1 | 0.5 | 0.4 | –
COc1ccccc1/C=C/c1ccccc1 | 0.4 | 0.3 | IC50 [8]: 1.7 to 2.2 µM
Oc1cc(O)cc(/C=C/c2ccc(O)c(O)c2)c1 [PICEATANNOL] | 0.3 | 0 | –
COc1cc(/C=C/c2ccccc2)cc(OC)c1 [3,5-O-DIMETHYLPINOSYLVIN] | 0.6 | 0.5 | –
COc1ccc(NC(=O)c2cc(O)cc(O)c2)cc1 | 0.3 | -0.4 | EC50 [1]: > 30 µM; inhibition [6]: 11.8%; IC50 [3]: > 30 µM; inhibition [9]: -5.9%; inhibition [5]: -8.2%
Clc1cc(Cl)cc(/C=C/c2ccccc2)c1 | 0.3 | 0.7 | EC50 [1]: > 30 µM; inhibition [6]: 8.4%; IC50 [3]: > 30 µM; inhibition [5]: 6.2%
Oc1cc(O)cc(/C=C/c2cc(O)c(O)c(O)c2)c1 | 0.3 | 0.4 | –
CCOc1ccc(/C=C/c2cc(OCC)cc(OCC)c2)cc1 | 0.4 | 0.4 | –

SMILES | fold change (FC) [2] | fold change (FC) [4] | further results
Oc1cc(O)cc(/C=C/c2ccc(OCc3ccccc3)cc2)c1 | 0.3 | 0.7 | –
CCCCCCOc1ccc(/C=C/c2cc(O)cc(O)c2)cc1 | 0.5 | 0.1 | –
CCCOc1ccc(/C=C/c2cc(O)cc(O)c2)cc1 | 0.3 | 0.1 | –
Oc1ccc(/C=C/c2cc(O)cc(O)c2)cc1 [RESVERATROL] | 0.4 | – | EC50 [1]: > 30 µM; inhibition [6]: 37.5%; IC50 [3]: > 30 µM; inhibition [9]: -3.8%; IC50 [10]: 0.75 µM; inhibition [5]: 2.5%
O=C(Nc1ccc(O)cc1)c1cc(O)cc(O)c1 | 0.3 | -0.6 | –
Oc1cc(O)cc(/C=C/C2CCCCC2)c1 | 0.3 | 0.5 | –
Oc1cc(O)cc(/C=C/c2cc(Br)c(O)c(Br)c2)c1 | 0.3 | 0.8 | –
Oc1cc(O)cc(/C=C/c2ccccc2)c1 [PINOSYLVIN] | 0.4 | -0.1 | –
Oc1ccc(/C=C/c2ccccc2)cc1 [(E)-4-STYRYLPHENOL] | 0.4 | 0.1 | –
Oc1cc(O)cc(/C=C/c2ccc(Cl)cc2)c1 | 0.3 | 0.5 | EC50 [1]: > 30 µM; inhibition [6]: 18.6%; IC50 [3]: > 30 µM; inhibition [9]: 6.1%; inhibition [5]: 5.6%
Oc1cc(O)cc(/C=C/c2ccc3c(c2)OCO3)c1 | 0.3 | 0.6 | –
Clc1ccc(/C=C/c2ccccc2)cc1 | 0.3 | -0.2 | –
Oc1ccc(/C=C/c2cc(Br)c(O)c(Br)c2)cc1 | 0.5 | 1.4 | Activity (Rattus norvegicus [11]): Active; Activity [12]: Active; Activity [13]: Active; Activity [14]: Not Active; EC50 [1]: > 10 µM; inhibition [6]: 66.7%; IC50 [3]: 16.1 µM; Activity [15]: Dose-dependent effect; Activity (HEK293): Non-Toxic; inhibition [9]: 14%; Activity [16]: Dose-dependent effect; inhibition [5]: 37.3%; Activity (Rattus norvegicus [17]): Non-Toxic
Oc1ccc(/C=C/c2ccc(O)c(O)c2)cc1 | 0.4 | -0.3 | –
Oc1ccc(-c2cc(O)cc(O)c2)cc1 | 0.5 | 0.8 | –
CC(C)(C)/C=C/c1cc(O)cc(O)c1 | 0.3 | 0.8 | –
COc1ccc(/C=C/c2cc(OC)cc(OC)c2)cc1 [TRISMETHOXYRESVERATROL] | 0.3 | 0.3 | –
COc1cc(CNC(=O)CCCC/C=C/C(C)C)ccc1O [CAPSAICIN] | – | – | Activity [18]: Active
CC(=O)Oc1ccc(/C=C/c2cc(OC(C)=O)cc(OC(C)=O)c2)cc1 [TRIACETYLRESVERATROL] | 0.5 | 0.5 | –
Clc1ccc(/C=C/c2cc(Cl)cc(Cl)c2)cc1 | 0.3 | 0.8 | EC50 [1]: > 30 µM; inhibition [6]: 20.6%; IC50 [3]: > 30 µM; inhibition [9]: 3%; inhibition [5]: 7.2%

Source: ChEMBL document CHEMBL4020807, “Synthesis of resveratrol derivatives as new analgesic drugs through desensitization of the TRPA1 receptor” (Bioorg Med Chem Lett, 2017)
